Laboratory results published in patent US10857170B1, “Molecules, compositions and methods for modulation of SIRT6” (SirTLab Corporation, priority 2015, dated 2020).

Biological target: T1, Human recombinant SIRT6 (Homo sapiens, UniProt Q8N6T7)
T1 construct: six-histidine (His6); made in house; host or cells: Escherichia coli BL21
Assay: SIRT6 enzymatic activity assay (fluorogenic de-myristoylation of histone H3 peptide-AMC, trypsin-coupled)
Format: biochemical
Conditions: Table 2, percentage of signal increase relative to control wells; for % activity 20 uM: compound 20 uM; for % activity 100 uM: compound 100 uM
Protocol: Human recombinant SIRT6 (sequence identifier: CAG33481.1; GI:4814651) was expressed in large scale in Escherichia coli strain BL21 as a six-histidine-tagged protein, after transformation of the expression plasmid pET28-SIRT6. The SIRT6 enzyme was purified from the bacteria culture broth in a two-step strategy. The first purification step was carried out by cation exchange chromatography on a HiTrap CM-Sepharose column (GE Healthcare) using an FPLC system. The second purification step was performed by immobilized metal ion affinity chromatography (IMAC) using a cobalt affinity column (Clontech).
The enzymatic activity assay is carried out in 96 or 384-well microplates using the purified recombinant SIRT6 and a fluorophore-labeled peptide substrate: 7-amino-4-methylcoumarin (AMC) that is quenched through conjugation to the C-terminal end of a Lysin-myristoylated histone H3 peptide. The activity assay procedure requires two steps, both performed in the same microplate. In the first step, the substrate is incubated with the purified SIRT6 protein along with the co-substrate nicotinamide adenine dinucleotide (NAD+). Upon de-myristoylation, the liberated ε-amino group of the lysine becomes a trypsin substrate. Treatment with trypsin in the second step releases the fluorophore resulting in an increase in fluorescence. Fluorescence intensity is measured using a fluorescent plate reader (excitation and emission at 370 nm and 450 nm, respectively). The fluorescence signal is directly proportional to SIRT6 enzymatic activity.
In the primary screening, compounds from a library (ChemDiv Inc.) were tested at a single concentration of 20 micromolar for their potential to modulate SIRT6 enzymatic activity. The assay was carried out in 384-well black well plates and all liquid handling was done using a robotic liquid handler. Purified recombinant SIRT6 (1 micromolar) was pre-incubated with each compound (or DMSO in control wells) for 15 minutes at room temperature. The first stage of the assay was initiated by adding a ‘substrate solution’ containing the myristoylated histone H3 peptide and NAD+(for final concentrations of 25 micromolar and 20 micromolar, respectively). After one hour incubation at 37° C., a Trypsin solution (6 mg/mL) was added for 30 minutes at room temperature. Fluorescence intensity was measured using a fluorescent plate reader (Tecan) with excitation at 370 nm and emission at 450 nm. The effect of each tested compound was evaluated by the change in the fluorescence intensity compared to control wells. […] To validate the primary screening results, each of the primary “hits” was re-tested, first at concentration of 20 micromolar in duplicates and later at a serial dilution ranging from 100 to 0.2 micromolar in triplicates.

T1 sequence (Q8N6T7 whole entry): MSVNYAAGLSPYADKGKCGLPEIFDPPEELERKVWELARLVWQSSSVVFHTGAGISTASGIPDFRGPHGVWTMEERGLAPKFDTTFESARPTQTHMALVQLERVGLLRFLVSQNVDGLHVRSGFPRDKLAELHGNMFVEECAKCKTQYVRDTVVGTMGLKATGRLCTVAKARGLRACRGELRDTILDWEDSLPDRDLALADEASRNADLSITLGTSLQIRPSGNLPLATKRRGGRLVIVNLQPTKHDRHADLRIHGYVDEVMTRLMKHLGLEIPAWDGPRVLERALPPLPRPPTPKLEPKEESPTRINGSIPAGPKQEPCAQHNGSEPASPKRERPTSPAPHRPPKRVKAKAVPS

SMILES	% activity 20 uM	% activity 100 uM
COc1ccc(-c2csc3c(NN)ncnc23)cc1 [compound 20]	78%	22%
C=C(CN1c2ccccc2C(C)(C)C12C=Cc1c(ccc3ccccc13)C2)NC (stereo not drawn) [compound 10]	25%	27%
CCc1nnc(NC(=O)CSc2nc(N)nc(SC)c2C#N)s1 [compound 8]	25%	25%
CC1=CC(C)(C)Nc2ccc(OC(=O)c3cccs3)cc21 [compound 5]	39%	54%
C=C(Nc1ccc(Cl)cc1)N1c2ccc(OCC)cc2C(C)=CC1(C)C [compound 2]	29%	46%
C=C(OC(C)CC)C1=C(C)NC2=C(C(=C)C(C(=C)OC)C(C)C2)C1c1ccc(N(CC)CC)cc1 (stereo not drawn) [compound 19]	37%	61%
C=C(Cc1ccc2c(c1)C(C)=CC(C)(C)N2)Cc1cccc2ccccc12 [compound 4]	29%	56%
COc1ccc(-c2nn3c(C)nnc3s2)cc1N [compound 17]	21%	18%
Cc1cc(Nc2ccc(NC(=O)Nc3ccc4c(c3)CCCO4)cc2)nc(NC2CCCCC2)n1 [compound 25]	26%	22%

Second part, the molecule after the results:

% activity 20 uM	% activity 100 uM	SMILES
37%	45%	N#Cc1cccc(-c2cn3c(n2)N(C(=O)c2ccncc2)CCC3)c1 [compound 57]
36%	22%	Cc1nc(Nc2ccc(F)cc2)sc1C(=O)Nc1ccc(F)cc1F [compound 53]
23%	87%	CC(C)(C)c1ccc(C(=O)Nc2ccc3nnc(C4CCC4)n3c2)cc1 [compound 51]
40%	54%	C=C(c1ccc(-c2ccc(N3CCCCC3)nc2)cc1)N(C)C [compound 48]
134%	246%	C=C1Cc2ccc(C)cc2C2=C1C(c1ccc(F)cc1)=C(NCCOC)C2 [compound 28]
51%	56%	C=C(c1ccc(-c2nc3ccccc3n(CC(C)C)c2=O)cc1)N1CCN(c2ccccc2)CC1 [compound 46]
